Results as given in patent US10745401B2, “Condensed lactam derivative” (Sumitomo Dainippon Pharma Co., Ltd., priority 2018, dated 2020).

Assays:
human 5-HT2A receptor [1] = biological target: T1, human 5-HT2A receptor (Homo sapiens (Human), UniProt P28223); test: Test 1: binding activity for human 5-HT2A receptor ([3H]Ketanserin, CHO cell membrane fraction)
Method in brief: (§1)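 CHO-cell membranes with [3H]ketanserin (5-HT2A) or [3H]spiperone (D2) were incubated with compound for 60 min at room temperature, then filtered, and bound radioactivity was counted by scintillation. Ki = IC50/(1+S/Kd), with ligand Kd from saturation binding on the same membranes.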

human 5-HT1A receptor [2] = biological target: T2, human 5-HT1A receptor (Homo sapiens (Human), UniProt P08908); test: Test 1: binding activity for human 5-HT1A receptor ([3H]8-OH-DPAT, CHO cell membrane fraction)
Method in brief: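 Membranes incubated with [3H]8-OH-DPAT and compound for 60 min at room temperature, then filtered on polyethylenimine-coated glass-fibre plates and counted by liquid scintillation. IC50 from Hill analysis; Ki = IC50/(1+S/Kd), Kd from saturation binding on the same membranes.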

[3] = Test 4: metabolic stability test in human hepatic microsome; assay type: in vitro ADME; details: 0.1 mg/mL microsome, 0.1 μmol/L compound, 37° C., 30 minutes
Method in brief: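 Compound at 0.1 μmol/L incubated 30 min at 37° C with human liver microsomes (0.1 mg/mL) and NADPH (3.2 mmol/L) in 25 mmol/L phosphate buffer, pH 7.4. Residual compound measured by LC-MS; stability (mL/min/mg protein) = −LN(residual ratio)/30/0.1.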

hERG channel = hERG channel (Homo sapiens (Human), UniProt Q12809); test: Test 6-1: inhibitory activity for hERG channel (auto patch clamp, Qpatch); assay type: cell-based; details: for hERG inhibition IC50 (nmol/L)/5-HT1A Ki (nmol/L): ratio of hERG IC50 to 5-HT1A Ki; for hERG inhibition IC50 (nmol/L)/5-HT2A Ki (nmol/L): ratio of hERG IC50 to 5-HT2A Ki; for IC50: whole cell auto patch clamp, hERG-CHO cells, read-out: hERG inhibition IC50
Method in brief: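 Whole-cell patch clamp on an automated system using CHO cells stably expressing human hERG (IKr); 15 s pulse interval. Four increasing compound concentrations applied cumulatively; mean peak tail current from last 3 stimulations per concentration used. IC50 from inhibition versus pre-compound current, fitted by Hill equation.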

human D2 receptor = human D2 receptor (Homo sapiens (Human), UniProt P14416); test: Test 1: binding activity for human D2 receptor ([3H]Spiperone, CHO cell membrane fraction); details: for Ki: human D2 receptor, [3H]Spiperone; for D2 Ki/5-HT1A Ki / D2 Ki/5-HT2A Ki: selectivity ratio
Method in brief: as §1

human 5-HT1A receptor [4] = biological target: T2, human 5-HT1A receptor; test: Test 2: agonist activity for human 5-HT1A receptor ([35S]GTPγS binding); assay type: biochemical; details: for EC50: [35S]GTPγS binding, concentration at which half the activity of Emax was obtained; for Emax at 10 µM: agonist activity in the presence of 10 μM of compound, relative to 100 μmol/L 5-HT
Method in brief: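 Membranes from CHO cells expressing human 5-HT1A incubated with compound, GDP-containing buffer and [35S]GTPγS for 60 min at room temperature. Bound radioactivity collected by glass-fibre filtration and counted by liquid scintillation; agonist activity derived from a formula.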

human 5-HT2A receptor [5] = biological target: T1, human 5-HT2A receptor; test: Test 3: antagonist activity for human 5-HT2A receptor (aequorin luminescence, CHO-K1 cells); assay type: cell-based; details: CHO-K1 cells, 1 nmol/L 5-HT
Method in brief: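 CHO-K1 cells transiently co-expressing aequorin, Gα16 and receptor; compound in DMSO added and luminescence recorded on FDSS/μCELL.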

P-gp (MDR1) = P-gp (MDR1) (Homo sapiens (Human), UniProt P08183); test: Test 9: P-gp substrate property (NFR, MDCKII and MDR1-MDCKII cells); assay type: in vitro ADME; details: Net Flux Ratio, MDR1-MDCKII vs MDCKII cells
Protocol: […]
NFR (Net Flux Ratio), which is an index of P-gp substrate property, can be calculated as follows. MDCKII (Madin-Darby canine kidney strain II) cells and MDR1-MDCKII cells in which MDR1 (multidrug resistance protein 1) was overexpressed were used to measure an apparent permeability coefficient (Papp A-B) from lumen (A) to basement membrane (B) and an apparent permeability coefficient (Papp B-A) from basement membrane (B) to lumen (A) of both MDCKII cells and MDR1-MDCKII cells. NFR (Net Flux Ratio) was calculated from the ratio between Ratio (Papp B-A/Papp A-B) of an apparent permeability coefficient of MDR1-MDCKII cells and Ratio of an apparent permeability coefficient of MDCKII cells.

T2 sequence (P08908 whole entry): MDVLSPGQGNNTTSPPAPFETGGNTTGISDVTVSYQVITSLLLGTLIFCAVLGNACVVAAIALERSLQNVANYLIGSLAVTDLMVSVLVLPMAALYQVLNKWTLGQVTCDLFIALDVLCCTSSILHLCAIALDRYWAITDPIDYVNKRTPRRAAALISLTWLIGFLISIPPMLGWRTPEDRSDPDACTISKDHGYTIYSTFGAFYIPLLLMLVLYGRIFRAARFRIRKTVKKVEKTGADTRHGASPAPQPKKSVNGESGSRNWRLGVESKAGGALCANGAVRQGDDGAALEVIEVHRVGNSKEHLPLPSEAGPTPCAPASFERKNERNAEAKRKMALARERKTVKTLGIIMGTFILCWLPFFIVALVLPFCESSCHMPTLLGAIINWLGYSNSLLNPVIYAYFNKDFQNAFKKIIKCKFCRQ
Sequence of hERG channel (Q12809 whole entry): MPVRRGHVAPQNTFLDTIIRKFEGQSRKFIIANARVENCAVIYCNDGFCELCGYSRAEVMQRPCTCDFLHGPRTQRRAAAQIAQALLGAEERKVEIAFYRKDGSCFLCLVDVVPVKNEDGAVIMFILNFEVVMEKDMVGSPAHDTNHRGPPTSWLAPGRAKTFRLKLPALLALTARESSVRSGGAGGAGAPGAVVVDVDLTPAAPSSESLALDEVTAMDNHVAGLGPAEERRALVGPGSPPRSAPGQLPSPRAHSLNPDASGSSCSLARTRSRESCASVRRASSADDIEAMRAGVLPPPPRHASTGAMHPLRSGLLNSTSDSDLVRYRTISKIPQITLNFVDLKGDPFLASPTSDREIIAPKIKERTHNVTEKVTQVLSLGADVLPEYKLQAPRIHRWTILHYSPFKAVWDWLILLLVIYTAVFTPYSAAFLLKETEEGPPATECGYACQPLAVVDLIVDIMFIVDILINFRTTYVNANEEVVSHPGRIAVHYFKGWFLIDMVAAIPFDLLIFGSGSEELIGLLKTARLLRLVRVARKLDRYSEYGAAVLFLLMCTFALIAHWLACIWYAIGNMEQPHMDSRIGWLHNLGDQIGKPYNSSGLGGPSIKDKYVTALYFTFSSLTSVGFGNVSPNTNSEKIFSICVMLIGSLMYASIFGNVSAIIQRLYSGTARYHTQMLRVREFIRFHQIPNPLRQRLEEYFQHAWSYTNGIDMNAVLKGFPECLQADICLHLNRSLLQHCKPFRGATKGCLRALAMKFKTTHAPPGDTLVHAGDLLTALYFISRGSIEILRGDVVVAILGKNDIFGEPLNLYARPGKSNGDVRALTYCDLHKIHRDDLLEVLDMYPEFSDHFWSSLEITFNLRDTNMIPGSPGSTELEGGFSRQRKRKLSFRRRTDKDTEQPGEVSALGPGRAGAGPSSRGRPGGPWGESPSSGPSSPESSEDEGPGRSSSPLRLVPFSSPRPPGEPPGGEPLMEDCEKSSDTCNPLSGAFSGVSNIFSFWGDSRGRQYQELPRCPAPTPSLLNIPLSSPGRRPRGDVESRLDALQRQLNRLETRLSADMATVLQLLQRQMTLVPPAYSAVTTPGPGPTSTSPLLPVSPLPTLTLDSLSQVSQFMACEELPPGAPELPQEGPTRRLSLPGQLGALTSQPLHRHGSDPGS
Sequence of P-gp (MDR1) (P08183 whole entry, species assumed): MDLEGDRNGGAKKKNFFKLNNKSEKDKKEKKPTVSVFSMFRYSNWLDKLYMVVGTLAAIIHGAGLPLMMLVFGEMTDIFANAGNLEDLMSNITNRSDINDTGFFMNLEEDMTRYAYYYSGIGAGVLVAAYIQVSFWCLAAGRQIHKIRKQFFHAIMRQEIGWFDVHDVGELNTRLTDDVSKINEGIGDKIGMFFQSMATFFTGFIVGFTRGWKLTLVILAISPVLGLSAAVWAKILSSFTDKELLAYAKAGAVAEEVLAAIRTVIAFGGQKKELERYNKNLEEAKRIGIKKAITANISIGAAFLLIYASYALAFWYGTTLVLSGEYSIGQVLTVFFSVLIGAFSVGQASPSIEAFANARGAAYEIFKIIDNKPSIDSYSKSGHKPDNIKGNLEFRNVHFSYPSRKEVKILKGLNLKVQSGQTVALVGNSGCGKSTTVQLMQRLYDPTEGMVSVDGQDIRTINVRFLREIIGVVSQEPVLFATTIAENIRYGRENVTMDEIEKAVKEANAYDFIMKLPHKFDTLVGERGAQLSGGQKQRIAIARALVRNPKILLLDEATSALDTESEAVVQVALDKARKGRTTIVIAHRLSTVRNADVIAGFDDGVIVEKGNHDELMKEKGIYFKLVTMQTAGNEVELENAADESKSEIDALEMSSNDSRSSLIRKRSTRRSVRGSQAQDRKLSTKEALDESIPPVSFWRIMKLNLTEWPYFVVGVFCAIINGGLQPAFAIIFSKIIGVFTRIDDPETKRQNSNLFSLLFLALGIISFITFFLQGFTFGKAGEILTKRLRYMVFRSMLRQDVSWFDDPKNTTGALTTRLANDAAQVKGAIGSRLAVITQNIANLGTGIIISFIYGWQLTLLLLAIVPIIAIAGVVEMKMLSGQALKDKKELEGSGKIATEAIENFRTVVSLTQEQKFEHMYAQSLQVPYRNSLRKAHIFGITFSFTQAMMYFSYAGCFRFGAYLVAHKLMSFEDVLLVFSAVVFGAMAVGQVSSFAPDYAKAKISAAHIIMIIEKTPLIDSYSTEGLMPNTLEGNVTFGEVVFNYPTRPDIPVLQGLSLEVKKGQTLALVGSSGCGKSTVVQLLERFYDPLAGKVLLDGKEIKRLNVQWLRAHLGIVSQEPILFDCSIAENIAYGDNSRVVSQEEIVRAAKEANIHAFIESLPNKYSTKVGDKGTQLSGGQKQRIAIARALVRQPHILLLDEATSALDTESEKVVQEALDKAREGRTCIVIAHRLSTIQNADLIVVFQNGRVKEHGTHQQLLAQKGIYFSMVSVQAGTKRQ
T1 sequence (P28223 whole entry): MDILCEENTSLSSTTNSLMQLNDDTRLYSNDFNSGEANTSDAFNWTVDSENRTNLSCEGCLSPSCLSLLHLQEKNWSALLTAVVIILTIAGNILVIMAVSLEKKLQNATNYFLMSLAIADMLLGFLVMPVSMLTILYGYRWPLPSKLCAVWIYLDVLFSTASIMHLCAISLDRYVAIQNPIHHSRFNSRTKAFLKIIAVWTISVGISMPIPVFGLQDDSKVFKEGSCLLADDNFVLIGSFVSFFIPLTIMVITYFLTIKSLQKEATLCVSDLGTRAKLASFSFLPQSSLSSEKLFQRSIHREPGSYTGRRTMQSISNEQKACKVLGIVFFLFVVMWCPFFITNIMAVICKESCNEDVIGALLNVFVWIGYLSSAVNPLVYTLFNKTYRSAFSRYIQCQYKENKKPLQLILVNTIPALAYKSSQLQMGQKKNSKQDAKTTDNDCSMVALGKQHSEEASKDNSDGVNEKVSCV
Sequence of human D2 receptor (P14416 whole entry): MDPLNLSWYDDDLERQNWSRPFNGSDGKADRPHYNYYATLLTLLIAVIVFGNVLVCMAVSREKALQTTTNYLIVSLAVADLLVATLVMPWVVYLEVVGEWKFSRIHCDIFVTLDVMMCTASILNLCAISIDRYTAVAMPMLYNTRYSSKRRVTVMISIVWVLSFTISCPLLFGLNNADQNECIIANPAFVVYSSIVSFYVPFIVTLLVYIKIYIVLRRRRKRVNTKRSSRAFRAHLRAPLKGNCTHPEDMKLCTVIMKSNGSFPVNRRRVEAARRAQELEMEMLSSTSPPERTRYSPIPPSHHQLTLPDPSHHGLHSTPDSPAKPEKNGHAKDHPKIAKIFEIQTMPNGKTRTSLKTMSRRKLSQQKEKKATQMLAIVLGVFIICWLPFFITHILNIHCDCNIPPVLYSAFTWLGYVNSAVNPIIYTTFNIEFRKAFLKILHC

Structure (SMILES)	Ki (human 5-HT2A receptor [1]) [nM]	Ki (human 5-HT1A receptor [2]) [nM]	Metabolic stability in human hepatic microsome [3] [mL/min/mg protein]	hERG inhibition IC50 (nmol/L)/5-HT1A Ki (nmol/L) (hERG channel)	hERG inhibition IC50 (nmol/L)/5-HT2A Ki (nmol/L) (hERG channel)	IC50 (hERG channel) [nM]	Ki (human D2 receptor) [nM]	D2 Ki/5-HT1A Ki (human D2 receptor)	D2 Ki/5-HT2A Ki (human D2 receptor)	EC50 (human 5-HT1A receptor [4]) [nM]	Emax at 10 µM (human 5-HT1A receptor [4]) [%]	IC50 (human 5-HT2A receptor [5]) [nM]	NFR (P-gp (MDR1))	IC50 (human 5-HT2A receptor [5]; aequorin luminescence) [nM]
Cc1nc2c(o1)C(=O)N(CCN1CCC(c3noc4ccccc34)CC1)CC2 [Example 35, 5-{2-[4-(1,2-Benzoisoxazol-3-yl)piperidin-1-yl]ethyl}-2-methyl-6,7-dihydro[1,3]oxazolo[5,4-c]pyridin-4(5H)-one]	9.3	3.3	<0.01	453	161	1500	1290	391	139	72	68	74	–	–
Cn1cc2c(n1)CCN(CCN1CCN(c3nsc4ccccc34)CC1)C2=O [Example 36, 5-{2-[4-(1,2-Benzoisothiazol-3-yl)piperazin-1-yl]ethyl}-2-methyl-2,5,6,7-tetrahydro-4H-pyrazolo[4,3-c]pyridin-4-one]	0.62	0.45	0.085	7112	5162	3200	903	2007	1456	2.7	78	6	1.8	–
Cn1ncc2c1CCCN(CCN1CCC(c3noc4ccccc34)CC1)C2=O [Example 43]	0.93	1.3	<0.01	1630	2274	2100	222	171	239	8.5	73	6.52	2.2	–
Cn1cnc2c1CCN(CCN1CCN(c3nsc4ccccc34)CC1)C2=O [Example 54]	–	–	<0.01	>3637	>1538	> 10000	–	–	–	38.4	55	13	6.6	–
Cn1ncc2c1C(=O)N(CCN1CCN(c3nsc4ccccc34)CC1)CC2 [Example 59]	0.45	1.99	0.173	–	–	–	125	63	278	8	61	9	1.1	–
Cn1ncc2c1C(=O)N(CCN1CCC(c3noc4ccccc34)CC1)CC2 [Example 96, 6-{2-[4-(1,2-Benzoisoxazol-3-yl)piperidin-1-yl]ethyl}-1-methyl-1,4,5,6-tetrahydro-7H-pyrazolo[3,4-c]pyridin-7-one]	7.25	11.8	0.019	97	159	1200	103	9	14	65.5	33	20	–	–
O=C1c2cnc(OC3COC3)cc2CCN1CCN1CCN(c2nsc3ccccc23)CC1 [Example 111, 2-{2-[4-(1,2-Benzoisothiazol-3-yl)piperazin-1-yl]ethyl}-6-[(oxetan-3-yl)oxy]-3,4-dihydro-2,7-naphthyridin-1(2H)-one]	1.9	0.91	0.254	2052	984	1900	1010	1105	530	4.58	51	17	–	–
O=c1c2cnccc2ccn1CCN1CCN(c2noc3ccccc23)CC1 [Example 116]	26	128	0.1	–	–	5300	> 10000	–	–	882	60	–	–	49.7
Cn1ncc2c1CCN(CCN1CCN(c3noc4ccccc34)CC1)C2=O [Example 131]	12	279	<0.05	–	–	> 3000	> 10000	–	–	405	48	–	–	9.53
Cc1cncc2c1CCN(CCN1CCN(c3noc4ccccc34)CC1)C2=O [Example 137]	11.2	186	<0.05	41	686	7700	1080	5.8	96.4	4660	19	–	–	2.4
Cc1nc2c(o1)C(=O)N(CCN1CCC(c3noc4ccccc34)CC1)CCC2 [Example 154]	13.1	20.2	<0.05	35	54	700	718	35.6	54.9	45.1	58	–	–	316
Cc1nc2c(o1)CCCN(CCN1CCC(c3noc4ccccc34)CC1)C2=O [Example 157]	14.5	2.12	<0.05	754	110	1600	641	302.1	44.2	52.7	47	–	–	115
Cn1ccc2c1CCCN(CCN1CCC(c3noc4ccccc34)C1)C2=O (stereo not drawn) [Example 175]	13.8	17.8	0.125	197	253	3500	3480	195.2	251.4	667	36	–	–	307
O=C1c2ncoc2CCN1CCN1CCC(c2noc3ccccc23)CC1 [Example 190, 5-{2-[4-(1,2-Benzoisoxazol-3-yl)piperidin-1-yl]ethyl}-6,7-dihydro[1,3]oxazolo[4,5-c]pyridin-4(5H)-one]	51.4	50	<0.05	32	31	1600	2460	49.3	47.9	7210	11	–	–	237
